One assay deals with T1, human B1R receptor (Homo sapiens, UniProt P46663).
T1 construct: host or cells: CHO K1 cells (Chinese hamster ovary), stably transfected
T1 sequence (P46663 1-353): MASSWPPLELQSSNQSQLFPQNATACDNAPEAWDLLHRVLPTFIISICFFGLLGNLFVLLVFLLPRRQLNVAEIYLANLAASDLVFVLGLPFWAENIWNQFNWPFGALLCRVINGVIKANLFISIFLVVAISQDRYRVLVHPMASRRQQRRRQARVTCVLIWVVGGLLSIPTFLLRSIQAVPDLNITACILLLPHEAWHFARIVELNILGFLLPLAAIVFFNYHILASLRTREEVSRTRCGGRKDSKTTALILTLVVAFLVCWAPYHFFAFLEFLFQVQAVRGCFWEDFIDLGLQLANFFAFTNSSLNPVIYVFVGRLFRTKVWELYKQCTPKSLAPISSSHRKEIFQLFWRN
The experiment in a line: Functional study on the bradykinin receptor 1 (B1R), FLIPR Ca2+ assay, hB1R cells. Format: cell-based. The settings on record: agonist Lys-Des-Arg9-bradykinin 0.5 nM, % inhibition compared with the maximum achievable inhibition; for inhibition at 10 µM: CHO-K1, test substance 10 μM, read-out: B1R Antagonism, human [10 μM] % Inhibition; for B1R Antagonism, human [10 μM] % Inhibition: test substance 10 μM, hB1R CHO K1 cells. A digest of the protocol:
(§1)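 FLIPR Ca2+ read-out (Fluo-4, peak fluorescence) in stably transfected CHO K1 cells. Compounds at 10 μM, then 10 min later agonist challenge: human B1R with Lys-Des-Arg9-bradykinin 0.5 nM, rat B1R with Des-Arg9-bradykinin 100 nM; reported as % activation or % of maximal inhibition.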

Another assay has as its target T2, B1R receptor of the rat (Rattus norvegicus, UniProt P97583).
T2 construct: host or cells: CHO K1 cells (Chinese hamster ovary), stably transfected
T2 sequence (P97583 1-337): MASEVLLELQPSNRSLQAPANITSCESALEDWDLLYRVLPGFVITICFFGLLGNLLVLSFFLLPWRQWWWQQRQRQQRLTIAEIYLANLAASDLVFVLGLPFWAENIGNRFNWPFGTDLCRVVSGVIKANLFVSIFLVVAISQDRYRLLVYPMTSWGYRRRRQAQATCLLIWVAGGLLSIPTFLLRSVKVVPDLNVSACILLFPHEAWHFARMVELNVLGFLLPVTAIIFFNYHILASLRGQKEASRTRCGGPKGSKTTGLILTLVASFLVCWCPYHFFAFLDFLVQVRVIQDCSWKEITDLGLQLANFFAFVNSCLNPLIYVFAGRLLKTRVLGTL
Nature of the assay: Functional study on the bradykinin receptor 1 (B1R), FLIPR Ca2+ assay, rB1R cells. Format: cell-based. The settings on record: agonist Des-Arg9-bradykinin 100 nM, % inhibition compared with the maximum achievable inhibition; for inhibition at 10 µM: CHO-K1, test substance 10 μM, read-out: B1R Antagonism, rat [10 μM] % Inhibition; for B1R Antagonism, rat [10 μM] % Inhibition: test substance 10 μM, rB1R CHO K1 cells. A digest of the protocol: as §1

Data on 22 compounds can be found in patent US8435978B2, “Substituted sulfonamide compounds” (Gruenenthal GmbH, priority 2006, dated 2013).

As for `COc1cc(C)c(S(=O)(=O)N2CCCC2COCC(=O)N(C)C(CN2CCCC2)c2ccccc2)c(C)c1` (centres unmarked) [Example 450, 2-((1-(4-methoxy-2,6-dimethylphenylsulfonyl)pyrrolidin-2-yl)methoxy)-N-methyl-N-(1-phenyl-2-(pyrrolidin-1-yl)ethyl)acetamide], the inhibition at 10 µM is 87.4% on human B1R receptor and 99.7% at B1R receptor of the rat.
The like results for `CN1CCN(c2ccc(CNC(=O)COCC3CCCN3S(=O)(=O)c3c(Cl)cc(Cl)cc3Cl)cc2)CC1` (centres unmarked) [Example 29, N-[4-(4-methyl-piperazin-1-yl)-benzyl]-2-[1-(2,4,6-trichloro-phenylsulfonyl)-pyrrolidin-2-ylmethoxy]-acetamide] were, in that order, 84.4% and 110%.
Consider `COc1cc(C)c(S(=O)(=O)N2CCCCC2COCC(=O)N2CCN(c3ccc4c(N5CCCC5)ncnc4c3)CC2)c(C)c1` (centres unmarked) [Example 168, 2-((1-(4-methoxy-2,6-dimethylphenylsulfonyl)piperidin-2-yl)methoxy)-1-(4-(4-(pyrrolidin-1-yl)quinazolin-7-yl)piperazin-1-yl)ethanone], for which the results for the inhibition at 10 µM at human B1R receptor and on B1R receptor of the rat were 93.8% and 98.4%, respectively.
The matching figures for `O=C(COCC1CCCCN1S(=O)(=O)c1c(Cl)cccc1Cl)NCc1ccc(CN2CCOCC2)cc1` (centres unmarked) [Example 549, 2-((1-(2,6-dichlorophenylsulfonyl)piperidin-2-yl)methoxy)-N-(4-(morpholinomethyl)benzyl)acetamide]: 75.8% and 99%.
The like results for `COc1cc(C)c(S(=O)(=O)N2CCCCC2COCC(=O)N2CCC(Cc3cccnc3)C2)c(C)c1` (centres unmarked) [Example 208, 2-((1-(4-methoxy-2,6-dimethylphenylsulfonyl)piperidin-2-yl)methoxy)-1-(3-(pyridin-3-ylmethyl)pyrrolidin-1-yl)ethanone] were, in that order, 105% and 101%.
The like results for `COc1cc(C)c(S(=O)(=O)N2CCCCC2COCC(=O)N2CCCCC2CCN2CCOCC2)c(C)c1` (centres unmarked) [Example 534, 2-((1-(4-methoxy-2,6-dimethylphenylsulfonyl)piperidin-2-yl)methoxy)-1-(2-(2-morpholinoethyl)piperidin-1-yl)ethanone] were, in that order, 104% and 107%.
Consider `COc1cc(C)c(S(=O)(=O)N2CCCCC2COCC(=O)NCc2ccc(N3CCOCC3)cc2)c(C)c1` (centres unmarked) [Example 439, 2-((1-(4-methoxy-2,6-dimethylphenylsulfonyl)piperidin-2-yl)methoxy)-N-(4-morpholinobenzyl)acetamide], for which the “B1R Antagonism, human [10 μM] % Inhibition” value on human B1R receptor came out at 48.25%. The “B1R Antagonism, rat [10 μM] % Inhibition” value at B1R receptor of the rat turned out to be 100.94%.
For the compound “N-(4-(dimethylamino)butyl)-2-((1-(2,4,6-trichlorophenylsulfonyl)pyrrolidin-2-yl)methoxy)acetamide [Example 294]”, the “B1R Antagonism, human [10 μM] % Inhibition” value on human B1R receptor was found to be 105.91%. Besides, the “B1R Antagonism, rat [10 μM] % Inhibition” value at B1R receptor of the rat came to 100%.
Turning to `COc1cc(C)c(S(=O)(=O)N2CCCC2COCC(=O)N2CCCN(C)CC2)c(C)c1` (centres unmarked) [Example 467, 2-((1-(4-methoxy-2,6-dimethylphenylsulfonyl)pyrrolidin-2-yl)methoxy)-1-(4-methyl-1,4-diazepan-1-yl)ethanone], the inhibition at 10 µM on human B1R receptor and at B1R receptor of the rat was 101% each time.
On to `COc1cc(C)c(S(=O)(=O)N2CCCC2COCC(=O)NC2CCN(Cc3ccccc3)CC2)c(C)c1` (centres unmarked) [Example 477, N-(1-benzylpiperidin-4-yl)-2-((1-(4-methoxy-2,6-dimethylphenylsulfonyl)pyrrolidin-2-yl)methoxy)acetamide], for which the inhibition at 10 µM turned out to be 94.5% on human B1R receptor and 98.8% on B1R receptor of the rat.
The like results for `COc1cc(C)c(S(=O)(=O)N2CCCCC2COCC(=O)NCc2ccccc2Oc2cnccn2)c(C)c1` (centres unmarked) [Example 205, 2-((1-(4-methoxy-2,6-dimethylphenylsulfonyl)piperidin-2-yl)methoxy)-N-(2-(pyrazin-2-yloxy)benzyl)acetamide] were, in that order, 50% and 99.7%.
The matching figures for `O=C(COCC1CCCCN1S(=O)(=O)c1c(Cl)cccc1Cl)N1CCN(c2nc3ccc(Cl)cc3s2)CC1` (centres unmarked) [Example 554, 1-(4-(6-chlorobenzo[d]thiazol-2-yl)piperazin-1-yl)-2-((1-(2,6-dichlorophenylsulfonyl)piperidin-2-yl)methoxy)ethanone]: 25.2% and 102%.
The matching figures for `COc1cc(C)c(S(=O)(=O)N2CCCC2COCC(=O)N2CCN(c3ccccn3)CC2)c(C)c1` (centres unmarked) [Example 305, 2-((1-(4-methoxy-2,6-dimethylphenylsulfonyl)pyrrolidin-2-yl)methoxy)-1-(4-(pyridin-2-yl)piperazin-1-yl)ethanone]: 76.4% and 95.5%.
For the compound `COc1cc(C)c(S(=O)(=O)N2CCCCC2COCC(=O)NCCc2cnccn2)c(C)c1` (centres unmarked) [Example 425, 2-((1-(4-methoxy-2,6-dimethylphenylsulfonyl)piperidin-2-yl)methoxy)-N-(2-(pyrazin-2-yl)ethyl)acetamide], the values for the inhibition at 10 µM at human B1R receptor and on B1R receptor of the rat were -0.97% and 98.8%, respectively.
In the case of `CC(C)c1cc(C(C)C)c(S(=O)(=O)N2CCCCC2COCC(=O)N2CCN(C3CCN(C)CC3)CC2)c(C(C)C)c1` (centres unmarked) [Example 119, 1-(4-(1-methylpiperidin-4-yl)piperazin-1-yl)-2-((1-(2,4,6-triisopropylphenylsulfonyl)piperidin-2-yl)methoxy)ethanone], the results for the inhibition at 10 µM at human B1R receptor and at B1R receptor of the rat were 95.9% and 61.9%, respectively.
In the case of `COc1cc(C)c(S(=O)(=O)N2CCCC2COCC(=O)N2CCN(Cc3ccc(Cl)c(Cl)c3)CC2)c(C)c1` (centres unmarked) [Example 349, 1-(4-(3,4-dichlorobenzyl)piperazin-1-yl)-2-((1-(4-methoxy-2,6-dimethylphenylsulfonyl)pyrrolidin-2-yl)methoxy)ethanone], the values for the inhibition at 10 µM on human B1R receptor and at B1R receptor of the rat were 101% and 103%, respectively.
The matching figures for `COc1cc(C)c(S(=O)(=O)N2CCCCC2COCC(=O)N(Cc2ccccc2)c2cccc(C)n2)c(C)c1` (centres unmarked) [Example 508, N-benzyl-2-((1-(4-methoxy-2,6-dimethylphenylsulfonyl)piperidin-2-yl)methoxy)-N-(6-methylpyridin-2-yl)acetamide]: 31.9% and 103%.
The like results for `COc1cc(C)c(S(=O)(=O)N2CCCC2COCC(=O)N2CCN(CC3CCCCC3)CC2)c(C)c1` (centres unmarked) [Example 492, 1-(4-(cyclohexylmethyl)piperazin-1-yl)-2-((1-(4-methoxy-2,6-dimethylphenylsulfonyl)pyrrolidin-2-yl)methoxy)ethanone] were, in that order, 103% and 104%.
The matching figures for `COc1cc(C)c(S(=O)(=O)N2CCCCC2COCC(=O)Nc2cccc(CN3CCCCC3)c2)c(C)c1` (centres unmarked) [Example 418, 2-((1-(4-methoxy-2,6-dimethylphenylsulfonyl)piperidin-2-yl)methoxy)-N-(3-(piperidin-1-ylmethyl)phenyl)acetamide]: 101% and 104%.
Consider `O=C(COCC1CCCCN1S(=O)(=O)c1ccc(Cl)c(Cl)c1)N1CCC(N2CCCC2)CC1` (centres unmarked) [Example 26, 2-[1-(3,4-dichloro-phenylsulfonyl)-piperidin-2-ylmethoxy]-1-(4-pyrrolidin-1-yl-piperidin-1-yl)-ethanone], for which the values for the inhibition at 10 µM on human B1R receptor and on B1R receptor of the rat were 86.8% and 4.56%, respectively.
Take `COc1cc(C)c(S(=O)(=O)N2CCCC2COCC(=O)NCc2ccc(N3CCN(C)CC3)cc2)c(C)c1` (centres unmarked) [Example 302, 2-((1-(4-methoxy-2,6-dimethylphenylsulfonyl)pyrrolidin-2-yl)methoxy)-N-(4-(4-methylpiperazin-1-yl)benzyl)acetamide]: at human B1R receptor, the “B1R Antagonism, human [10 μM] % Inhibition” value was determined as 100.69%. Also, the “B1R Antagonism, rat [10 μM] % Inhibition” value on B1R receptor of the rat is 102.41%.
`COc1cc(C)c(S(=O)(=O)N2CCCC2COCC(=O)N2CCN(Cc3ccc(Cl)cc3)CC2)c(C)c1` (centres unmarked) [Example 352, 1-(4-(4-chlorobenzyl)piperazin-1-yl)-2-((1-(4-methoxy-2,6-dimethylphenylsulfonyl)pyrrolidin-2-yl)methoxy)ethanone]: the inhibition at 10 µM on human B1R receptor and at B1R receptor of the rat was 104% throughout.
